Patent US20200261443A1, “Use of Anti-Ischemic Compounds in Treating Acute-On-Chronic Liver Failure” (Martin Pharmaceuticals Inc., priority 2019, published 2020)
Entries after “also recorded” stand apart in the source; their conditions may differ. Read-outs that look alike come from different tables or passages of the source.

Assays:
[1] = system: patients with acute decompensation of cirrhosis and suspected ACLF; assay: Three-arm, randomized, controlled TMZ study in suspected ACLF: mortality; format: in vivo, human; settings: for Treatment effect on Day 90 mortality: dihydrochloride
Text: A three-arm, randomized, controlled study enrolled 133 subjects presenting with acute decompensation of cirrhosis and suspected ACLF.
Patient were divided into two groups by Child Pugh score: Class A or B (<10) and Class C (≥10).
[…] 1. The ACLF3 group was not analyzed because of the small numbers.

[2] = system: carbon tetrachloride-induced fulminant liver failure; settings: animal model; cited from earlier work
[3] = cited from earlier work
[4] = system: non-alcoholic steatohepatitis; settings: human population; cited from earlier work
[5] = system: liver lipid homeostasis; settings: human normal obese subjects; cited from earlier work
[6] = TMZ study in suspected ACLF: white blood cell count, platelet count, creatinine clearance; format: in vivo, human; settings: throughout the study, TMZ versus control groups; dihydrochloride
Text: A three-arm, randomized, controlled study enrolled 133 subjects presenting with acute decompensation of cirrhosis and suspected ACLF. Included patients presented with a prothrombin time extended by 4-6 seconds or an international normalized ratio of ≥1.5 or any degree of hepatic encephalopathy as assessed by the West Haven criteria.
In view of the overall disturbed immunlological state and the coagulopathy that is common in ACLF, it is important to asertain whether trimetazidine poses an additional risk to ACLF patients in this regard.

[7] = Day 30, CP < 10, TMZ arm = TMZ + LOLA + SoC, LOLA arm = LOLA + SoC

L-ornithine-L-aspartate [LOLA]
Alive (number of patients) [1, 7]: 10
Alive (number of patients) ([1]; Day 30, CP ≥ 10): 16
Alive (number of patients) ([1]; Day 90, CP < 10): 6
Alive (number of patients) ([1]; Day 90, CP ≥ 10): 6

COc1ccc(CN2CCNCC2)c(OC)c1OC.Cl.Cl [TMZ, 1-(2,3,4-trimethoxybenzyl)piperazine dihydrochloride]
Effectiveness in fulminant liver failure [2]: effectiveness
Solubility in water / aqueous solution ([3]; dihydrochloride): highly soluble in water
Solubility in water / aqueous solution ([3]; listed as dihydrochloride form of TMZ, dihydrochloride): very soluble
Effect on parameters associated with non-alcoholic steatohepatitis [4]: improve certain parameters associated with non-alcoholic steatohepatitis
Effect on liver lipid homeostasis [5]: improve liver lipid homeostasis
Treatment effect on Day 90 mortality ([1]; ACLF1 population): drug effect was visible; also recorded: Positive results
Treatment effect on Day 90 mortality ([1]; ACLF2 population): drug effect was visible; also recorded: Positive results
Treatment effect on Day 90 mortality ([1]; ACLF population by EASL-CLIF criteria, worst case imputation): highly statistically significant difference; also recorded: robust effect
Treatment effect on Day 90 mortality ([1]; AD population by EASL-CLIF criteria, worst case imputation): not even a trend towards an effect; also recorded: ineffective
30- and 90-day mortality ([1]; Child Pugh Class C (≥10) subjects): substantial and statistically significant reductions
Alive (number of patients) [1, 7]: 9
Dead (number of patients) [1, 7]: 2
Dead (percent of patients) [1, 7]: 18%
Alive (number of patients) ([1]; Day 30, CP ≥ 10): 20
Dead (number of patients) ([1]; Day 30, CP ≥ 10): 5
Dead (percent of patients) ([1]; Day 30, CP ≥ 10): 20%
Alive (number of patients) ([1]; Day 90, CP < 10): 7
Dead (number of patients) ([1]; Day 90, CP < 10): 4
Dead (percent of patients) ([1]; Day 90, CP < 10): 36%
Alive (number of patients) ([1]; Day 90, CP ≥ 10): 16
Dead (number of patients) ([1]; Day 90, CP ≥ 10): 9
Dead (percent of patients) ([1]; Day 90, CP ≥ 10): 36%
Estimated creatinine clearance rate [6]: does not Affect; also recorded: no difference between the TMZ and control groups
Platelet count / thrombocytopenia [6]: does not Affect; also recorded: not causing thrombocytopenia; also recorded: no difference between the TMZ and control groups
White blood cell levels [6]: does not Affect; also recorded: no meaningful difference between the TMZ and control groups

COc1ccc(CN2CCNCC2)c(OC)c1OC [neutral form of TMZ, 1-(2,3,4-trimethoxybenzyl)piperazine]
Solubility in organic environments [3]: soluble in certain organic environments
Solubility in water / aqueous solution [3]: only sparingly soluble in aqueous solution
